Results published in ChEMBL document CHEMBL5729562, “Proteasome activity enhancing compounds” (2023).

Target: Ubiquitin carboxyl-terminal hydrolase 14 (Homo sapiens, UniProt P54578)
Assay: Usp14 Inhibition Assay: Usp14 Inhibition Assay was described in B. H. Lee et al. Nature 2010, 467 (9), 179.

Chain of Ubiquitin carboxyl-terminal hydrolase 14 (P54578 whole entry): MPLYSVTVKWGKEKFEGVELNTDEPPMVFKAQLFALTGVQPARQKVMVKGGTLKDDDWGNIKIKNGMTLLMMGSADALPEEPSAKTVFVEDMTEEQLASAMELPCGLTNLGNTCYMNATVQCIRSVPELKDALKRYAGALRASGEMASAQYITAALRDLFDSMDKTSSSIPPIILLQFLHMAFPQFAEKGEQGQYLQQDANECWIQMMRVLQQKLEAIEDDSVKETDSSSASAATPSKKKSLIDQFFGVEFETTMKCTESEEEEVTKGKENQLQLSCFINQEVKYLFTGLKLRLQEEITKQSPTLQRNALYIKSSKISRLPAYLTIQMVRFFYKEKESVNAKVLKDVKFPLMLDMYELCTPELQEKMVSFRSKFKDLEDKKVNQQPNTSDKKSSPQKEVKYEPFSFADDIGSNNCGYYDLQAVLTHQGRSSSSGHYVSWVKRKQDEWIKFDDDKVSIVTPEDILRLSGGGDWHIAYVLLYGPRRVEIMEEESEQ

Molecule `Cc1c(C(=O)CN2C3CC4CC2CC(C3)O4)cc(CCCCC#N)n1-c1ccc(C#N)cc1` has an IC50 of under 50 nM.

`Cc1c(C(=O)CN2C3CCC2CC3)cc(C#CCCC#N)n1-c1ccc(C#N)cc1` gave an IC50 of under 50 nM.
